{"source": "patent US20240325353A1", "about": "“COMPOUND FOR TREATMENT OF COGNITIVE DISORDERS” (Syndesi Therapeutics SA, priority 2021, published 2024)", "key": {"[1]": {"experiment": "repeat dose pharmacokinetics in humans", "format": "in vivo, human", "conditions": "once daily repeat dosing, all doses"}, "[2]": {"molecular_target": "T1, SV2A (Rattus norvegicus, UniProt Q02563)", "T1 construct": "from tissue; host or cells: brain of living rats", "T1 sequence (Q02563 whole entry)": "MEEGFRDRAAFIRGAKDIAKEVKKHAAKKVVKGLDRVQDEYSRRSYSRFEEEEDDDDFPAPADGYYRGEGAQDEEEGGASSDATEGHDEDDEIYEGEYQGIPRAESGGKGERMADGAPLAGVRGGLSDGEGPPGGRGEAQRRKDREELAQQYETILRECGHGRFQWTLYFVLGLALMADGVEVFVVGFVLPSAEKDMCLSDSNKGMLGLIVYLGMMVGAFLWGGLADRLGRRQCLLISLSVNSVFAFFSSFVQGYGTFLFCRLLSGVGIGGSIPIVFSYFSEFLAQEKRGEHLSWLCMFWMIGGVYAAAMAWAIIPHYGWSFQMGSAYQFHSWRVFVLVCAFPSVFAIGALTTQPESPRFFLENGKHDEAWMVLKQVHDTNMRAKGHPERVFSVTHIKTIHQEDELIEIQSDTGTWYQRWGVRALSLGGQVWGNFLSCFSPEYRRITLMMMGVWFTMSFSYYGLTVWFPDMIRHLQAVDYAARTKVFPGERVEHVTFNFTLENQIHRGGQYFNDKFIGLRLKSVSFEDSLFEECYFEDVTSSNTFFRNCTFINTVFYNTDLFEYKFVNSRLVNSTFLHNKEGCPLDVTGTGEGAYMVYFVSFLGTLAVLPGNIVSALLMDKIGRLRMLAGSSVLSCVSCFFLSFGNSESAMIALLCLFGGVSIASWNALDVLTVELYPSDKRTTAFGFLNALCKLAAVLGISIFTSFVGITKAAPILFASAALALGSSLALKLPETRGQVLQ", "experiment": "in vivo SV2A receptor occupancy in rats", "conditions": "ip, 0.1 mg/kg i.p., 60 minutes post administration"}, "[3]": {"tested_on": "functional connectivity of brain networks (DMN, visual network)", "experiment": "resting state BOLD-fMRI functional connectivity", "format": "in vivo, human", "conditions": "post dose versus baseline", "procedure": "This example describes the fMRI analysis performed in the context of the study in Example 3. Simultaneous with the dynamic PET described in example 3 above, MRI data were acquired using a resting state BOLD-fMRI (rs-fMRI) protocol. In the following section, the methodology and results of the analysis of these MRI data are presented.\nResting state BOLD-fMRI data were acquired according to the following protocol: For the analysis of the rs-fMRI scans, all data were converted to the BIDS format for processing with the CONN toolbox (release 19c).\nThe following preprocessing steps were performed: • Slice timing correction: Temporal misalignment between different slices of the rs-fMRI scans, due to the sequential nature of the fMRI acquisition, is corrected by applying an appropriate timeshift to match the actual acquisition time • Realignment: RS-fMRI data were realigned where all scans were coregistered to the first scan of the first session. This way, potential susceptibility distortion-by-motion interactions were also addressed by estimating the derivatives of the deformation field with respect to head movement, and resampling the functional data to match the deformation field of the reference image. • Outlier detection: Potential outlier scans were identified from the observed global BOLD signal and the amount of subject-motion in the scanner. […]"}}, "data": [{"smiles": "O=C1C[C@H](c2cc(F)c(F)c(F)c2)CN1Cn1ncnc1Cl", "note": "[compound of example 1, (4R)-1-[(5-chloro-1H-1,2,4-triazol-1-yl)methyl]-4-(3,4,5-trifluorophenyl)pyrrolidin-2-one]", "values": [{"measurement": "time to reach steady state", "setting": "[1]", "result": "8 to 10", "unit": "days"}, {"measurement": "receptor occupancy at 0.1 mg/kg", "setting": "[2]", "result": "20 to 50", "unit": "%"}, {"measurement": "connectivity in the DMN (seed IC12)", "setting": "[3]; low doses (all four individuals at 1 and 2 mg)", "result": "modulate and enhance connectivity in the DMN"}, {"measurement": "connectivity between IC18 (Visual network) and auditory network", "setting": "[3]; relatively low occupancy levels", "result": "increased"}]}]}
